Experiments:
[1] = biological target: T1, platelet α2 adrenergic receptors (Oryctolagus cuniculus, UniProt Q5ZQK3); assay: Affinity for platelet α2 adrenergic receptors (inhibition of specific linking of tritiated dihydroergocryptine); assay type: binding; conditions: rabbit platelet membranes, tritiated DHE 7 nM, 30 minutes at 25° C.; read-out: CE50 (dosage required to inhibit 50 percent of the linking of tritiated DHE)
T1 construct: from tissue; host or cells: platelet membranes from blood of male New Zealand albino rabbits
T1 sequence (Q5ZQK3 1-451): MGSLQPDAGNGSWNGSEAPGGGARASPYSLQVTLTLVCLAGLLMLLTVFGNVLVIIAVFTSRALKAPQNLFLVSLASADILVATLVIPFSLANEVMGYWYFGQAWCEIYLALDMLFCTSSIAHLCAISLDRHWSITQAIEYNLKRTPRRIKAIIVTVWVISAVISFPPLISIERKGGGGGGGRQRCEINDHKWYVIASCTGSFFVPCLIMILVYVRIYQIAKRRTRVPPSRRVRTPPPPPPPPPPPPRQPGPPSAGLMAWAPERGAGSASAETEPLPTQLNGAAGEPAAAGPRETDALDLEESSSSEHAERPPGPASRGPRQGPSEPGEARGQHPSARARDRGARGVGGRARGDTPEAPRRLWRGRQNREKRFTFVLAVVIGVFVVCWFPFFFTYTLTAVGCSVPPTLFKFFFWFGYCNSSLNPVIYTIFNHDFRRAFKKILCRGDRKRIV
Protocol: 1. Affinity for platelet α2 adrenergic receptors
The compounds of the formula (I) were tested on the platelet adrenergic receptor of rabbit which is exclusively of α2 type (MICHEL T., Nature, 288, (5792) 709, 1980).
The affinity of said compounds for the α2 receptors is determined by measuring the inhibition of the specific linking of tritiated dihydroergocryptine (DHE) by the test compounds.
The rabbits used are male New-Zealand albino rabbits
Blood is taken by the intracardiac route, over ACD (an anticoagulant consisting of an aqueous solution containing 0.27 g citric acid, 0.5 g trisodium citrate and 0.02 g glucose per 20 ml water) at a rate of 1 volume ACD per 6 volumes blood.
The blood is centrifuged 10 minutes at 280 g and the supernatant (PRP) is collected. The PRP is centrifuged 15 minutes at 2000 g.
The platelet sediment is washed twice with buffer I (Tris 50 mM, NaCl 150 mM, EDTA 20 mM, pH 7.5) and is then re-suspended in buffer II (Tris 50 mM, EDTA 5 mM, pH 7.5).
This suspension is frozen at -40° C., and is then defrosted; the procedure is repeated twice. The suspension is then homogenized, after which it is centrifuged 10 minutes at 40,000 g, at 4° C.
The centrifugation sediment is washed with buffer II and is then re-suspended in this same buffer so that the final protein concentration is of the order of 1.5 mg/ml.
The inhibition tests are effected in a final volume of 0.2 ml of buffer II containing the tritiated DHE (7 nM) and varying concentrations of test compound.
The reaction is initiated by adding 0.2 mg proteins and is continued for 30 minutes at 25° C.
The incubation is terminated by adding 2 ml buffer II and by rapidly filtering this mixture in vacuo, through Whatman GF/C filters. The filters are rapidly washed with buffer II and the radioactivity bound to the filter is determined by liquid scintillation.
The dosage required to inhibit 50 percent of the linking of the […] DHE (CE50) is calculated for each of the test compounds.

[2] = system: male Swiss mice (NMRI-Han); assay: Acute toxicity by the intraperitoneal route; assay type: in vivo; conditions: observation time 48 hours
Protocol: The mice used are male Swiss mice (NMRI-Han) with an average body weight of 25 g.
The acute toxicity investigation was effected by the intraperitoneal route.
The compounds were injected in aqueous solution, at three dosage levels: 50, 100 and 200 mg/kg.
Table below gives the results obtained with compounds of the formula (I), after an observation time of 48 hours.
The results are expressed as number of dead animals vs. the total number of animals treated.

[3] = system: male New-Zealand rabbits; assay: Hypotensive activity in rabbits after topical administration (intraocular pressure); assay type: in vivo; conditions: rabbit; for Duration of the effect / t (time corresponding to the maximum effect) / Δmax (maximum decrease of the intraocular pressure with respect to the basic value at time zero): 0.5% isotonic aqueous solution instilled in an eye; for effect on pressure in the contralateral eye (evidence of an action at the level of the central nervous system): same experimental conditions (topical instillation)
Protocol: 2. Hypotensive activity in rabbits, after topical administration
The experiments were conducted using male New-Zealand rabbits (2 kg body weight) given "ad libitum" food and drink.
The animals are given a few days to get accustomed to the animal house, are conditioned to stabling in restraining boxes, and to the ocular pressure determinations, in order to prevent pressure deviations induced by stress and handling.
The intraocular pressure is determined with an ALCON aplanation pneumatonograph, standardized by means of an isolated cornea of rabbit, under water pressure.
The compounds are tested in isotonic aqueous solution, at pH 7.25 μl of an 0.5% solution are instilled in an eye, and the intraocular pressure is determined as a function of time.
Table below gives the maximum decrease of the intraocular pressure (Δ max) with respect to the basic value at time zero (time of instillation), the time corresponding to this maximum effect (t), and the total duration of the effect.

Row | SMILES | IC50 [1] [µM] | number of dead animals vs. total number of animals treated ([2]; 100 mg/kg) | number of dead animals vs. total number of animals treated ([2]; 200 mg/kg) | Duration of the effect [3] [mn] | t (time corresponding to the maximum effect) [3] [mn] | Δmax (maximum decrease of the intraocular pressure with respect to the basic value at time zero) [3] [mm Hg] | effect on pressure in the contralateral eye (evidence of an action at the level of the central nervous system) [3] | number of dead animals vs. total number of animals treated ([2]; 50 mg/kg)
1 | COc1cc(O)ccc1C(C)=NNC1=NCCN1 [Compound 6] | 2.5 | – | – | – | – | – | – | –
2 | Cc1cc(N)ccc1C=NNC(=N)N [Compound 8] | 32 | 0/3 | 3/3 | – | – | – | – | –
3 | Cc1cc(N)ccc1C=NNC1=NCCN1 [Compound 2] | 10 | 0/3 | 3/3 | 300 | 60 | -4.12 ± 0.95 | – | –
4 | Clc1cccc(Cl)c1C=NNC1=NCCN1 [(2,6-dichlorobenzylidene-hydrazino)-2-imidazoline, reference compound] | – | – | – | – | – | – | concomitant decrease of the pressure in the contralateral eye | –
5 | CC(=NNC(=N)N)c1ccc(O)cc1C [Compound 10] | 11 | 0/3 | 2/3 | – | – | – | – | –
6 | Cc1cc(O)ccc1C=NNC1=NCCN1 [Compound 1] | 3 | 0/3 | 0/3 | 360 | 60 | -3.12 ± 2.21 | – | –
7 | COc1cc(O)ccc1C(C)=NNC(=N)N [Compound 11] | 1.3 | – | – | – | – | – | – | –
8 | Clc1cccc(Cl)c1N=C1NCCN1 [clonidine, 2,6-dichloro-anilino-2-imidazoline, reference compound] | – | – | – | – | – | – | concomitant decrease of the pressure in the contralateral eye | –
9 | COc1cc(O)ccc1C=NNC(=N)N [Compound 9] | 8 | 3/3 | 3/3 | – | – | – | – | 0/3
10 | COc1cc(O)ccc1C=NNC1=NCCN1 [Compound 4] | 3 | 0/3 | 0/3 | 400 | 60 | -2.5 ± 0.57 | – | –
11 | COc1cc(N)ccc1C=NNC1=NCCN1 [Compound 5] | 14 | 0/3 | – | 360 | 120 | -3.9 ± 0.5 | – | –
12 | CC(=NNC1=NCCN1)c1ccc(O)cc1C [Compound 3] | 5.6 | 0/3 | 3/3 | 300 | 30 | -1.83 ± 1 | – | –
13 | Cc1cc(O)ccc1C=NNC(=N)N [Compound 7] | 6.3 | 0/3 | 3/3 | – | 60 | -0.25 ± 1.7 | – | –

— US4665085A, “Amidines, preparation process and therapeutical application thereof” (Laboratoires Chauvin-Blache, priority 1983, dated 1987)
